Reference: the NIST ThermoML archive (doi:10.1016/j.jct.2014.12.002)

What was measured:
[1] = Crystal
[2] = Molar enthalpy of transition or fusion; settings: Crystal; DSC
[3] = molar heat capacity at constant pressure; settings: 100 kPa, Small sample (50 mg) DSC

N#Cc1ccccc1-c1ccc(CBr)cc1 [4'-(bromomethyl)-2-cyanobiphenyl]
Settings | molar volume [m3/mol]
[1], 293.15 K, 101.33 kPa, Pycnometric method | 0.000223

Settings | Normal melting temperature [°C]
[1], DTA | 126.06

Settings | Molar enthalpy of transition or fusion [kcal/mol]
[2] | 7.05

[3]
Settings | molar heat capacity at constant pressure [J/K/mol]
293.15 K, Crystal | 253.23
297.15 K, Crystal | 256.2
301.15 K, Crystal | 259.07
305.15 K, Crystal | 261.5
309.15 K, Crystal | 265.03
313.15 K, Crystal | 268.1
317.15 K, Crystal | 271.41
321.15 K, Crystal | 274.74
325.15 K, Crystal | 277.96
329.15 K, Crystal | 281.51
333.15 K, Crystal | 284.37
337.15 K, Crystal | 287.74
341.15 K, Crystal | 291.32
345.15 K, Crystal | 294.58
349.15 K, Crystal | 298.15
353.15 K, Crystal | 300.62
357.15 K, Crystal | 303.82
361.15 K, Crystal | 306.86
365.15 K, Crystal | 309.09
369.15 K, Crystal | 314.38
373.15 K, Crystal | 317.58
433.15 K, Liquid | 408.2
437.15 K, Liquid | 410.68
441.15 K, Liquid | 413.2
445.15 K, Liquid | 415.66
449.15 K, Liquid | 417.96
453.15 K, Liquid | 420.63
457.15 K, Liquid | 423.5
461.15 K, Liquid | 425.47
465.15 K, Liquid | 427.72
469.15 K, Liquid | 429.91
473.15 K, Liquid | 432.48
477.15 K, Liquid | 434.9
481.15 K, Liquid | 437.62
485.15 K, Liquid | 440.31
489.15 K, Liquid | 441.88
493.15 K, Liquid | 444.14
